Test [1] addresses Integrin alpha-V/beta-1 (Homo sapiens, UniProt P05556+P06756). Briefly: Antagonist activity at alphavbeta1 integrin receptor (unknown origin) by cell-free ELISA. In kind it is protein-complex assay.
The target in test [2] is Integrin alpha-10/Integrin beta-1 (Homo sapiens, UniProt O75578+P05556). Briefly: Antagonist activity at alpha10beta1 integrin receptor (unknown origin) by cell-free ELISA. In kind it is protein-complex assay.
Test [3] concerns the target Integrin alpha-V/beta-8 (Homo sapiens, UniProt P06756+P26012). Briefly: Antagonist activity at alphavbeta8 integrin receptor (unknown origin) by cell-free ELISA. In kind it is protein-complex assay. (In an ELISA, binding on a coated surface is turned into a signal by an enzyme label.)
In test [4] the target is Integrin alpha-IIb/beta-3 (Homo sapiens, UniProt P05106+P08514). Briefly: Antagonist activity at alpha2bbeta3 integrin receptor (unknown origin) by cell-free ELISA. In kind it is protein-complex assay.
Test [5] deals with Integrin alpha2/beta1 (Homo sapiens, UniProt P05556+P17301). Briefly: Antagonist activity at alpha2beta1 integrin receptor (unknown origin) by cell-free ELISA. In kind it is protein-complex assay.
In test [6] the target is T1, Integrin alpha-V/beta-5 (Homo sapiens, UniProt P06756+P18084). Briefly: Antagonist activity at alphavbeta5 integrin receptor (unknown origin) by cell-based ELISA.
T1 sequence (P06756 31-889 limits assumed): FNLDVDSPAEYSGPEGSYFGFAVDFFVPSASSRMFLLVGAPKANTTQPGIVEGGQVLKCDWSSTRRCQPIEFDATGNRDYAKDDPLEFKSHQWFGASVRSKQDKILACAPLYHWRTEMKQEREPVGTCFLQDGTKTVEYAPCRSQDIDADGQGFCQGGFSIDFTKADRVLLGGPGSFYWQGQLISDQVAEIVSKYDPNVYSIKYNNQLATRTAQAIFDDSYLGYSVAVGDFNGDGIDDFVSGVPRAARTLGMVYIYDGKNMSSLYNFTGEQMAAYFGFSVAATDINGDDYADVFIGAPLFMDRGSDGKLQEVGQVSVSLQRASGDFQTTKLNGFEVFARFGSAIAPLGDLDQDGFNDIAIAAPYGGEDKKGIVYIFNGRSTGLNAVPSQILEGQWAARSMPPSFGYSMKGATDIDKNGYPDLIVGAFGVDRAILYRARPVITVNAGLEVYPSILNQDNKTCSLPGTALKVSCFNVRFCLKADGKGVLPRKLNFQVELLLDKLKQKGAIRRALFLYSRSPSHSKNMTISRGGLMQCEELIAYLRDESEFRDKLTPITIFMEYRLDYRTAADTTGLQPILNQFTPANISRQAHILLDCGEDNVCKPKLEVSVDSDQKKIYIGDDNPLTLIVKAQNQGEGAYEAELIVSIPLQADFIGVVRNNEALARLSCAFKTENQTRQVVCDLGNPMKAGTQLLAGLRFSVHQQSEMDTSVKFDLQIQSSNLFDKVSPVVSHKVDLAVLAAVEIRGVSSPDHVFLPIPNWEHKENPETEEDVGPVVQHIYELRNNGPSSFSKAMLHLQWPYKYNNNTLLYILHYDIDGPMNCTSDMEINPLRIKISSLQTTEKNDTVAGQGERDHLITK
T1 sequence (P06756 891-1048 limits assumed): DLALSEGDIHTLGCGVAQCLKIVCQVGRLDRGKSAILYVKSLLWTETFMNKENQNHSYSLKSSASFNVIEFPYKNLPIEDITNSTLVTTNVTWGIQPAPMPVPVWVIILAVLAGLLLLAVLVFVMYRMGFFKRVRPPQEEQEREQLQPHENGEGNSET
T1 sequence (P18084 24-799 limits assumed): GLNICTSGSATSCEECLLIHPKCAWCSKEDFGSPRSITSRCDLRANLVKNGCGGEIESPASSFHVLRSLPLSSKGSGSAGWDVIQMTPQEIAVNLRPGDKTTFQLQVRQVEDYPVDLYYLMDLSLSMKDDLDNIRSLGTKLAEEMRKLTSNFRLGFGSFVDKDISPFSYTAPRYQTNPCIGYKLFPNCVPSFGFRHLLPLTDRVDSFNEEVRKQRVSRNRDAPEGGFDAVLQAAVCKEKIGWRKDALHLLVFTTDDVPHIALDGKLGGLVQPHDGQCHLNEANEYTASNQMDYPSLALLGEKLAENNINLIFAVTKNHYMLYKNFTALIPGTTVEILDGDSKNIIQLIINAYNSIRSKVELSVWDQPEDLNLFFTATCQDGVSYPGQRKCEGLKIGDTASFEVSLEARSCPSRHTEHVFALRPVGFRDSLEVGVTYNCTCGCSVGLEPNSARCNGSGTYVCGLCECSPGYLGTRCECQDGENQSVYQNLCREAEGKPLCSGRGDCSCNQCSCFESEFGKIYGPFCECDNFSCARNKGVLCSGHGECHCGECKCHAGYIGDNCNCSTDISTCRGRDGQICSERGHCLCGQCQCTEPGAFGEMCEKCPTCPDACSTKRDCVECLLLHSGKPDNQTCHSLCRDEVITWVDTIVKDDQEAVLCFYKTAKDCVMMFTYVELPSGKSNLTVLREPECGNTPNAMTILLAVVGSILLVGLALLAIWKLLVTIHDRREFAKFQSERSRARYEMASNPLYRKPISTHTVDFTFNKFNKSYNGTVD
For test [7], the target named is T2, Integrin alpha-4/beta-7 (Homo sapiens, UniProt P13612+P26010).
T2 sequence (P13612 whole entry): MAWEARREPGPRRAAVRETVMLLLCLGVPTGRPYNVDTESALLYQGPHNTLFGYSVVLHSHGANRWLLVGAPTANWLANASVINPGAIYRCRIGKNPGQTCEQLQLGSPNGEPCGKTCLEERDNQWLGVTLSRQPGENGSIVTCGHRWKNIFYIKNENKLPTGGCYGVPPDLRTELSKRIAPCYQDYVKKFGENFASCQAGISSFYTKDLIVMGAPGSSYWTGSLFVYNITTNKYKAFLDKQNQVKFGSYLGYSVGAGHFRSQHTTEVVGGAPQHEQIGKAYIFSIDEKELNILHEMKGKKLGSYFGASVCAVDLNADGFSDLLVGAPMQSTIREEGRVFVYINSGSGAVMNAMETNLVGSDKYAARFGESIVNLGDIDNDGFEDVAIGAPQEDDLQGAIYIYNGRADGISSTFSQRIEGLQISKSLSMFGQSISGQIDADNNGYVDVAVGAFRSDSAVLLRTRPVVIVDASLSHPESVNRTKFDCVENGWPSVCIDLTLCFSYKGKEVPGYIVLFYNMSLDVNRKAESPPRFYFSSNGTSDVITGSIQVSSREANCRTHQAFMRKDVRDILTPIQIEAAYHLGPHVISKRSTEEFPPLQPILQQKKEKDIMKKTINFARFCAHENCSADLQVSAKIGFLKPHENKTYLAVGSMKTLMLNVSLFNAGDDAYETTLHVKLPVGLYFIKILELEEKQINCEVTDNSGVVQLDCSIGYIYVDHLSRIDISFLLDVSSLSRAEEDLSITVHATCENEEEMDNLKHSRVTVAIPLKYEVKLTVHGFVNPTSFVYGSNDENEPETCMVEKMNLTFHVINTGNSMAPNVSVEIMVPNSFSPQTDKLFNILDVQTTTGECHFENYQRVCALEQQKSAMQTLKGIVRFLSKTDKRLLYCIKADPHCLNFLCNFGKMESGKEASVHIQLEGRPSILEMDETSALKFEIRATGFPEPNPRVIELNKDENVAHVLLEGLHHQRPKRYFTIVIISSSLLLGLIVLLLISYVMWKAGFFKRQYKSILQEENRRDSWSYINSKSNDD
T2 sequence (P26010 whole entry): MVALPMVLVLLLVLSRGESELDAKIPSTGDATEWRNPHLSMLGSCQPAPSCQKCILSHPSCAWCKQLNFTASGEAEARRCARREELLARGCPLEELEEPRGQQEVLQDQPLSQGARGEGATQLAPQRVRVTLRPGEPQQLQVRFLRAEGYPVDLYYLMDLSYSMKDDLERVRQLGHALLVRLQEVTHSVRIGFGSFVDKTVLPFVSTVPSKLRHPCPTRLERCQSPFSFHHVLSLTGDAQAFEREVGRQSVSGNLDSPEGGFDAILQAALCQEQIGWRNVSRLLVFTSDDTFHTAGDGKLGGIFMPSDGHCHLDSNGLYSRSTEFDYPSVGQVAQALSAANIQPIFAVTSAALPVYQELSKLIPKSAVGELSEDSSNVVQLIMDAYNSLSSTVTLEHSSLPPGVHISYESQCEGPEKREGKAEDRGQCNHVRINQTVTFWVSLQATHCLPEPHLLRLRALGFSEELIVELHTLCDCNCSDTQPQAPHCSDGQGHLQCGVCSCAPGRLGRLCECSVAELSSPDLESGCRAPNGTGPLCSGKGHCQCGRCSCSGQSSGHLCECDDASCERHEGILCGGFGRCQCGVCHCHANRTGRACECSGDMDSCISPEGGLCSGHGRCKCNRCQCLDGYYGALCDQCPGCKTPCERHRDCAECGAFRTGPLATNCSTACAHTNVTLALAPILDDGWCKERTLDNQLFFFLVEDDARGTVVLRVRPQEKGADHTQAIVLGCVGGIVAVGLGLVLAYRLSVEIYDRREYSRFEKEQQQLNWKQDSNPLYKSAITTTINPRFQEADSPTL
Briefly: Antagonist activity at alpha4beta7 integrin receptor (unknown origin) by cell-free ELISA. In kind it is protein-complex assay.

Test [8] addresses Integrin alpha-5/beta-1 (Homo sapiens, UniProt P05556+P08648). Briefly: Antagonist activity at alpha5beta1 integrin receptor (unknown origin) by cell-free ELISA. In kind it is protein-complex assay.
The target in test [9] is Integrin alpha-V/beta-6 (Homo sapiens, UniProt P06756+P18564). Briefly: Antagonist activity at alphavbeta6 integrin receptor (unknown origin) by cell-free ELISA. It is filed as protein-complex assay.
Test [10] addresses T1, Integrin alpha-V/beta-5. Briefly: Antagonist activity at alphavbeta5 integrin receptor (unknown origin) by cell-free ELISA. It is filed as protein-complex assay.
Test [11] deals with Integrin alpha-V/beta-3 (Homo sapiens, UniProt P05106+P06756). Briefly: Antagonist activity at alphavbeta3 integrin receptor (unknown origin) by cell-free ELISA. It is filed as protein-complex assay.

These results are taken from ChEMBL document CHEMBL3351286, “Strategies to inhibit tumor associated integrin receptors: rationale for dual and multi-antagonists” (J Med Chem, 2014).

Bounds are passed on as bounds.

Chain of Integrin alpha-V/beta-1 (P05556 21-798 limits assumed): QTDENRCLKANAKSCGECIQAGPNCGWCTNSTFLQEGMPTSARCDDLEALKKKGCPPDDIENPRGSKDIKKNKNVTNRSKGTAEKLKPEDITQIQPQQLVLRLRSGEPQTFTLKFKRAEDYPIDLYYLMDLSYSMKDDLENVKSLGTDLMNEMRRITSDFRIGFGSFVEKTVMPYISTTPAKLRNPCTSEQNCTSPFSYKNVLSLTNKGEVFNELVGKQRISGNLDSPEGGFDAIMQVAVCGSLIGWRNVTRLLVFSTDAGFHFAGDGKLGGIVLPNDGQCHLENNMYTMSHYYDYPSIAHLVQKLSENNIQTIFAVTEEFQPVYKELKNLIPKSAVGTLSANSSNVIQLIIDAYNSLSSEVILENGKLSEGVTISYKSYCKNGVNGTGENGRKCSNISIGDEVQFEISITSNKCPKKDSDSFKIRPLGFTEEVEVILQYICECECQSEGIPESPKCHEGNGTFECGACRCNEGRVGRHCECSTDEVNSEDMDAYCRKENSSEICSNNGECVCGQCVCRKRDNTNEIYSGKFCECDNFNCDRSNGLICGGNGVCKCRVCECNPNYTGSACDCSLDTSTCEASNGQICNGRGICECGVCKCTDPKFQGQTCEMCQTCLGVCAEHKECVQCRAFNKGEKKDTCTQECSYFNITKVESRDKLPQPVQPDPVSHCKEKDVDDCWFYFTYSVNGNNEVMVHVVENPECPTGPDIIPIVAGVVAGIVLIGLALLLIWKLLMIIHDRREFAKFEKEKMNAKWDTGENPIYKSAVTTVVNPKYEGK
Chain of Integrin alpha-V/beta-1 (P06756 31-889 limits assumed): as the sequence (P06756 31-889 limits assumed) above
Chain of Integrin alpha-V/beta-1 (P06756 891-1048 limits assumed): as the sequence (P06756 891-1048 limits assumed) above
Chain of Integrin alpha-V/beta-8 (P06756 31-889 limits assumed): as the sequence (P06756 31-889 limits assumed) above
Chain of Integrin alpha-V/beta-8 (P06756 891-1048 limits assumed): as the sequence (P06756 891-1048 limits assumed) above
Chain of Integrin alpha-V/beta-8 (P26012 43-769 limits assumed): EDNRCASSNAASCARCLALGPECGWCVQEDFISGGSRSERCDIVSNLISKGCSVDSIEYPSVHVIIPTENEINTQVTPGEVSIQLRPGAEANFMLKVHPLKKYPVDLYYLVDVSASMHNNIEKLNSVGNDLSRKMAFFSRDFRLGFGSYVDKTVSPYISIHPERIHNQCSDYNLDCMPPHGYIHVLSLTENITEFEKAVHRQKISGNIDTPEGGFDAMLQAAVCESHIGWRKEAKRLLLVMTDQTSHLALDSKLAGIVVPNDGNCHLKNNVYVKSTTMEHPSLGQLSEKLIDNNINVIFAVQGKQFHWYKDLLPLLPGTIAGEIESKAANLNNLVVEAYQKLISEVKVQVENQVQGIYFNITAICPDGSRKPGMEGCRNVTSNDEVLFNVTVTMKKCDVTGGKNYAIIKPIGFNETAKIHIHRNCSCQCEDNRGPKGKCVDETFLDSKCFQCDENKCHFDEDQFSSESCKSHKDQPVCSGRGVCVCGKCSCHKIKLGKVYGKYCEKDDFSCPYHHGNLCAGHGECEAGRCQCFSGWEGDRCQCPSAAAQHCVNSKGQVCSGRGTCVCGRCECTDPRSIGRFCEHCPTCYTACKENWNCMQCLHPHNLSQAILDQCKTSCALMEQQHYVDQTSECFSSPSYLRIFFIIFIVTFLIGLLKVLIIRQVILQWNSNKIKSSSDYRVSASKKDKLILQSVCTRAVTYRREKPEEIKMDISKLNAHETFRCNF
Chain of Integrin alpha-5/beta-1 (P05556 21-798 limits assumed): as the sequence (P05556 21-798 limits assumed) above
Chain of Integrin alpha-5/beta-1 (P08648 42-894 limits assumed): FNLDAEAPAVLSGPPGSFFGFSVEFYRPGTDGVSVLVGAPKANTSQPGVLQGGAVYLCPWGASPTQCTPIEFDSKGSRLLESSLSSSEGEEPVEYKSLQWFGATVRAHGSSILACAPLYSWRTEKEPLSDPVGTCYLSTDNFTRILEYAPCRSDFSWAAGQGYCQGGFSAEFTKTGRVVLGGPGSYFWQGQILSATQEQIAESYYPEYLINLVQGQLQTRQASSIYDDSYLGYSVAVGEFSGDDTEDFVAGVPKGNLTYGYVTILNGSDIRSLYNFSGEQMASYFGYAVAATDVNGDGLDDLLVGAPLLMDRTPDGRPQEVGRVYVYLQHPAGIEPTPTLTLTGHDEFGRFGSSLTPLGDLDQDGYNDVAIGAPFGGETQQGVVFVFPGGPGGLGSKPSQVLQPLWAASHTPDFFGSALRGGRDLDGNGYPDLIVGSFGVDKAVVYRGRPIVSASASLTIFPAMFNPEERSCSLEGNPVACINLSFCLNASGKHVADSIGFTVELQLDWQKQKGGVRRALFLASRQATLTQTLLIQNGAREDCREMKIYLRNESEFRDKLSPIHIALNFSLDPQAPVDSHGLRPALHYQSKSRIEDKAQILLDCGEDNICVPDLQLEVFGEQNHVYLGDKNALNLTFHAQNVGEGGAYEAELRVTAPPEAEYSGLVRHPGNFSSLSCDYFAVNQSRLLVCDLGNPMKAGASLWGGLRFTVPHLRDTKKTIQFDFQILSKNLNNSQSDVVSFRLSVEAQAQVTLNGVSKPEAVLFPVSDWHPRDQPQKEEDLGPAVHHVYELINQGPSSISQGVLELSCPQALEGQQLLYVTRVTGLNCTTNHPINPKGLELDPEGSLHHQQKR
Chain of Integrin alpha-5/beta-1 (P08648 895-1049 limits assumed): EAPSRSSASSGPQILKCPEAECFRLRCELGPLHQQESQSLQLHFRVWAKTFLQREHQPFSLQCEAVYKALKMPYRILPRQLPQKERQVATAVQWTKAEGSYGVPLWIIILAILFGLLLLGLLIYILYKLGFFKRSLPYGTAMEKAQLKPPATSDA

For orientation: IC50 means the concentration that gives 50% inhibition. A higher IC50 goes with a need for much substance. For the compound `CC(C)(C)c1cc(Br)cc([C@H](CC(=O)O)NC(=O)CNC(=O)c2cc(O)cc(NC3=NCC(O)CN3)c2)c1` (some centres undefined), the IC50 in test [1] was 1.8 nM; in [2], above 5000 nM; in test [3] it was 0.2 nM; in test [4], above 5000 nM; in test [5], above 5000 nM; in test [6] it was 61 nM.
For the compound `COc1ccc(S(=O)(=O)N[C@@H](CNc2nc(C)nc(N3CCC(c4ccc5c(n4)NCCC5)CC3)c2C)C(=O)O)cc1` [GLPG-0187], the concentration for half-maximal inhibition (IC50) is 1.3 nM in [1]; above 10000 nM in [7]; 7.7 nM in [8]; 1.2 nM in test [3]; above 10000 nM in test [5]; 1.4 nM in [9]. Besides, the half-maximal inhibitory concentration (IC50) turned out to be 2 nM in test [10] and 3.7 nM in [11].
